Measurements reported in US5641746A, “Animal model for AIDS” (Rutgers State University of New Jersey, priority 1994, dated 1997).

Experiments:
[1] = test system: intracellular free calcium; settings: cited from earlier work
[2] = test system: gp120 binding to brain tissue; settings: in vitro; cited from earlier work
[3] = test system: HIV; settings: in vitro; cited from earlier work
[4] = test system: neurotoxic effects of gp120; settings: on cells and in animals; cited from earlier work
[5] = test system: rats; test: Intrathecal VIP in rats; type: in vivo, rat
Description: Each animal was treated with VIP or Ringer's solution in a counterbalanced fashion. […] At a dose of 25 ug VIP/5 ul (5 ug/ul), there were 4 of 6 documented deaths. At 60 ug VIP/5 ul (12 ug/ul), there were 3 of 5 documented deaths.

| Compound | Effect on gp 120-CD4 induced increase of intracellular free calcium [1] | Effect on binding of gp120 [2] | Effect on HIV replication in cell culture [3] | Effect on the neurotoxic effects of gp120 [4] | Documented deaths ([5]; 25 ug VIP/5 ul (5 ug/ul) IT) | Documented deaths ([5]; 60 ug VIP/5 ul (12 ug/ul) IT) | Morbidity ([5]; IT VIP) | Symptoms shown by all VIP-treated animals ([5]; IT VIP, all doses) | Concentration shown to be effective to induce the desired symptoms ([5]; IT, rats) [µg/µL] | AIDS-like symptoms in addition to neurological deficit ([5]; VIP 25 ug/5 ul (5 ug/ul) IT) |
| --- | --- | --- | --- | --- | --- | --- | --- | --- | --- | --- |
| COCCOC(=O)C1=C(C)NC(C)=C(C(=O)OC(C)C)C1c1cccc([N+](=O)[O-])c1 (stereo not shown) [nimodipine] | antagonize this effect | – | – | – | – | – | – | – | – | – |
| Vasoactive Intestinal Peptide [VIP] | – | inhibit | inhibit | potently inhibit | 4 of 6 | 3 of 5 | morbidity was observed | diarrhea, weight loss, monoparesis, lower limb deficits and mucous secretions | 2.55 to 12 | diarrhea, hind limb rigidity and damage to spinal tissue |
